This passage reports melting point results from patent US6441180B1, “Tetrazolyl-phenyl actamide glucokinase activators” (Hoffmann-La Roche Inc., priority 2000, dated 2002).

Usually melting point stands for the temperature, or range, at which the solid turns liquid.

Take `CNC(=O)NC(=O)C(CC1CCCC1)c1ccc(-n2nnnc2C)c(Cl)c1` (stereo not drawn) [Example 11, 1-{2-[3-Chloro-4-(5-methyl-tetrazol-1-yl)-phenyl]-3-cyclopentyl-propionyl}-3-methyl-urea]: the melting point was in the range of 185 to 186 °C.
The figure for `Cc1nnnn1-c1ccc(C(CC2CCCC2)C(=O)Nc2ccc(Br)cn2)cc1F` (stereo not drawn) [Example 2, N-(5-Bromo-pyridin-2-yl)-3-cyclopentyl-2-[3-fluoro-4-(5-methyl-tetrazol-1-yl)-phenyl]-propionamide] is 73 to 78 °C; for `CNC(=O)NC(=O)/C(=C/C1CCCC1)c1ccc(-n2nnnc2C)c(F)c1` [Example 22, (E)-1-{3-Cyclopentyl-2-[3-fluoro-4-(5-methyl-tetrazol-1-yl)-phenyl]-acryloyl}-3-methyl-urea] it is 186 to 192 °C; for `Cc1nnnn1-c1cc(C(CC2CCCC2)C(=O)Nc2nccs2)ccc1S(C)(=O)=O` (stereo not drawn) [Example 9, 3-Cyclopentyl-2-[4-methanesulfonyl-3-(5-methyl-tetrazol-1-yl)-phenyl]-N-thiazol-2-yl-propionamide] it is 148 to 154 °C.
In turn, `Cc1nnnn1-c1ccc(/C(=C\C2CCCC2)C(=O)Nc2nccs2)cc1F` [Example 12, (E)-3-Cyclopentyl-2-[3-fluoro-4-(5-methyl-tetrazol-1-yl)-phenyl]-N-thiazol-2-yl-acrlamide] showed a melting point of 158 to 162 °C.
Then `Cc1nnnn1-c1ccc(C(CC2CCCC2)C(=O)Nc2nccs2)cc1Cl` (stereo not drawn) [Example 3, 2-[3-Chloro-4-(5-methyl-tetrazol-1-yl)-phenyl]-3-cyclopentyl-N-thiazol-2-yl-propionamide], with 190 to 193 °C.
